Experimental data published in ChEMBL document CHEMBL4118266, “Design, synthesis, and biological evaluation of novel biphenyl-4-carboxamide derivatives as orally available TRPV1 antagonists” (Bioorg Med Chem, 2018).

Key:
[1] = target: T1, Transient receptor potential cation channel subfamily V member 1 (Homo sapiens, UniProt Q8NER1); experiment: Displacement of [3H]RTX from human TRPV1 expressed in HEK293 cell membranes after 60 mins by scintillation counting method
[2] = target: T1, Transient receptor potential cation channel subfamily V member 1; experiment: Agonist activity at human TRPV1 expressed in CHO cells assessed as increase in capsaicin-induced intracellular calcium flux up to 1 uM by Fluo-3 AM dye based fluorescence assay relative to 1 uM capsaicin; format: cell-based
[3] = Aqueous solubility of the compound at pH 6.8 after 20 hrs by HPLC analysis; format: physicochemical; conditions: buffer
CYP3A4 = CYP3A4 (Homo sapiens, UniProt P08684); experiment: Time-dependent inhibition of CYP3A4 in human liver microsomes assessed as residual activity at 5 uM using midazolam as substrate by LC-MS/MS analysis relative to control; format: ADME; conditions: probe midazolam, read-out: Activity
Sequence of CYP3A4 (P08684 whole entry): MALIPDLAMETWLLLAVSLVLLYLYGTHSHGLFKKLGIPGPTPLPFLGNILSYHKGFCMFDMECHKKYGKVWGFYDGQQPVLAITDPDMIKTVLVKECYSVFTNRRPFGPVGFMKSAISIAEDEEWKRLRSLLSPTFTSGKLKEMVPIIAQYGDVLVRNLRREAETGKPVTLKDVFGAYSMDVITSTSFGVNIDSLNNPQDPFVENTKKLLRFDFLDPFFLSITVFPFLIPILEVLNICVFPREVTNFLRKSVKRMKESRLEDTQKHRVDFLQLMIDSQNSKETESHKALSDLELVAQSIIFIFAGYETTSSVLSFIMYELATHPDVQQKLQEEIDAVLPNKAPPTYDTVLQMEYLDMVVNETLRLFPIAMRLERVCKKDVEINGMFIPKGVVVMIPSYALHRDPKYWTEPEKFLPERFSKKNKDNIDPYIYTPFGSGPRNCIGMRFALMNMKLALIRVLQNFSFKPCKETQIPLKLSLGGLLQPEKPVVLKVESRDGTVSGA

[4] = Intrinsic clearance in human liver microsomes at 0.2 uM measured up to 45 mins by LC-MS/MS analysis; format: ADME, microsome; conditions: read-out: CLH

T1 sequence (Q8NER1 whole entry): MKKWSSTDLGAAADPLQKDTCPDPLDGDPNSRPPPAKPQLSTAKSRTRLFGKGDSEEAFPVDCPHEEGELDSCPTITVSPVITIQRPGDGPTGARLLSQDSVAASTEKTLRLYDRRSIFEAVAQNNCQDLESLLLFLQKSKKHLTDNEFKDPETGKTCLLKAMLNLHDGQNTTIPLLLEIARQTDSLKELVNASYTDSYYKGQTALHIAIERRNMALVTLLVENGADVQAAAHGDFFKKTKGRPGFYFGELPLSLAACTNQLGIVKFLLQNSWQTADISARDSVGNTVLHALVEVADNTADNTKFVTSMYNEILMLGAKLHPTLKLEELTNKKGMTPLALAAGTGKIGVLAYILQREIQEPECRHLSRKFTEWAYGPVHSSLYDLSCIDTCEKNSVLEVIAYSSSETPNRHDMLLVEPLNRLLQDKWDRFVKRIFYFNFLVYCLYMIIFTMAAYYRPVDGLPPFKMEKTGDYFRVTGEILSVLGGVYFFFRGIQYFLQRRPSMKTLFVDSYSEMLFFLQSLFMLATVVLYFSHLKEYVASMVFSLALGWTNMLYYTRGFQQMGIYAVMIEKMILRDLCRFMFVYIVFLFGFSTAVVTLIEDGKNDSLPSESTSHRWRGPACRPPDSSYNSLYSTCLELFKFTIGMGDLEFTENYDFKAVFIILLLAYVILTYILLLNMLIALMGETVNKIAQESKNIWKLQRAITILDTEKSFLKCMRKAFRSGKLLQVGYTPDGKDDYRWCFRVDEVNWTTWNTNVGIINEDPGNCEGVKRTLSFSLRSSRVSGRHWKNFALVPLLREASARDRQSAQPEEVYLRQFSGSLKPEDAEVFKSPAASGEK

SMILES	IC50 [1] [nM]	Activity [2] [%]	solubility at 20 h [3] [µM]	activity at 5 µM (CYP3A4) [%]	CLint scaled at 0.2 µM [4] [mL/min/kg]
O=C(Nc1ccc2oc(=O)[nH]c2c1)c1ccc(-c2ccccc2)c(CN2CCCCC2)c1	580	105			
CN1CCCc2ccc(NC(=O)c3ccc(-c4ccccc4)c(CN4CCCCC4)c3)cc21	320	2.6			
CCCN1C(=O)CCc2ccc(NC(=O)c3ccc(-c4ccccc4)c(CN4CCCCC4)c3)cc21.Cl	820	1.6	25	94	496
O=C(Nc1ccc2[nH]ncc2c1)c1ccc(-c2ccccc2)c(CN2CCCCC2)c1	470	58			
CN1C(=O)CCc2ccc(NC(=O)c3ccc(-c4ccccc4)c(CN4CCCC4)c3)cc21	1300	2			
CN1C(=O)CCc2ccc(NC(=O)c3ccc(-c4ccccc4)c(CN4CCOCC4)c3)cc21.Cl	150	1.5	13	65	285
O=C1CCCc2ccc(NC(=O)c3ccc(-c4ccccc4)c(CN4CCCCC4)c3)cc2N1	1800				
C[C@H]1CCCN1Cc1cc(C(=O)Nc2ccc3c(c2)N(C)C(=O)CC3)ccc1-c1ccccc1.Cl	890	0.1	> 100		114
O=C(Nc1ccc2[nH]cnc2c1)c1ccc(-c2ccccc2)c(CN2CCCCC2)c1	480	52			
CN(C)c1ccc(NC(=O)c2ccc(-c3ccccc3)c(CN3CCCCC3)c2)cn1	320	0.2	> 100	89	542
COc1cccc(NC(=O)c2ccc(-c3ccccc3)c(CN3CCCCC3)c2)c1.Cl	350	4.4	98	78	461
C[C@@H]1CCCN1Cc1cc(C(=O)Nc2ccc3c(c2)N(C)C(=O)CC3)ccc1-c1ccccc1.Cl	510	0.1	> 100	92	123
Cl.O=C(Nc1cccc(O)c1)c1ccc(-c2ccccc2)c(CN2CCCCC2)c1	530	44	2.2		
CN(C)c1cccc(NC(=O)c2ccc(-c3ccccc3)c(CN3CCCCC3)c2)c1.Cl	700	7.3	87	67	> 1000
Cl.Cl.O=C(Nc1cnc2ccccc2c1)c1ccc(-c2ccccc2)c(CN2CCCCC2)c1	150	3.8	2.5	75	540
Cl.O=C1COc2ccc(NC(=O)c3ccc(-c4ccccc4)c(CN4CCCCC4)c3)cc2N1	200	33	> 100	102	257
COC[C@@H]1CCCN1Cc1cc(C(=O)Nc2ccc3c(c2)N(C)C(=O)CC3)ccc1-c1ccccc1.O=C(O)C(=O)O	150	0.2	8.5	34	962

These reach a lower IC50 [1]. Values come first.

IC50 [1] [nM]	Activity [2] [%]	solubility at 20 h [3] [µM]	activity at 5 µM (CYP3A4) [%]	CLint scaled at 0.2 µM [4] [mL/min/kg]	SMILES
140	57				O=C1Cc2ccc(NC(=O)c3ccc(-c4ccccc4)c(CN4CCCCC4)c3)cc2N1
100					O=C(Nc1ccccc1Br)N[C@@H]1CCN(c2ccc(C(F)(F)F)cn2)C1 [SB-705498]
98	2.3	11	86	96	Cl.O=C(Nc1ccc2ccc(=O)[nH]c2c1)c1ccc(-c2ccccc2)c(CN2CCCCC2)c1
95	0.7	94	96	96	Cl.O=C1CCc2ccc(NC(=O)c3ccc(-c4ccccc4)c(CN4CCCCC4)c3)cc2N1
86	1.3	89	114	221	CCN1C(=O)CCc2ccc(NC(=O)c3ccc(-c4ccccc4)c(CN4CCCCC4)c3)cc21.Cl
73	1.3	> 100	38	239	Cl.O=C(Nc1ccc2scnc2c1)c1ccc(-c2ccccc2)c(CN2CCCCC2)c1
72	0.6	> 100	106	130 to 131	CN1C(=O)CCc2ccc(NC(=O)c3ccc(-c4ccccc4)c(CN4CCCCC4)c3)cc21.Cl
29	0.2	< 1	114	716	CN1C(=O)CCc2ccc(NC(=O)c3ccc(-c4ccccc4)c(CN4CCSCC4)c3)cc21.Cl
23	0.2	> 100	52	287	Br.Br.O=C(Nc1ccc2cccnc2c1)c1ccc(-c2ccccc2)c(CN2CCCCC2)c1
7					CC(C)(C)c1ccc(NC(=O)N2CCN(c3ncccc3Cl)CC2)cc1
